From patent US7632506B2, “Identification of new NY-ESO-1 epitopes recognized by CD4+ T-cells” (Ludwig Institute for Cancer Research, priority 2005, dated 2009)

System: CD4+ T cells
Assay: IFN-γ ELISPOT of CD4+ T cells presensitized with overlapping NY-ESO-1 18 mer peptides
Type: cell-based, human
Details: for Patient T cells 1 / Patient T cells 2 / Patient T cells 3: IFN-γ ELISPOT; for Patient T cells 1: day 12, CD4+ T cells of patient 1, autologous peptide pulsed EBV-B cells as targets; for Patient T cells 2: day 12, CD4+ T cells of patient 2, autologous peptide pulsed EBV-B cells as targets; for Patient T cells 3: day 12, CD4+ T cells of patient 3, autologous peptide pulsed EBV-B cells as targets; for patients whose CD4+ T cells recognized the peptide: three patients tested
Experimental: Peripheral blood mono-nuclear cells (“PBMCs”) were separated from heparinized blood via Ficoll density gradient separation, using standard, art recognized techniques. Once this was done, the CD4^+ and CD8^+ T cells were separated from each other using magnetic cell sorting techniques which are well known to the art, producing CD4^+, CD8^+, and CD4^−/CD8^− cell populations.
A series of 18 mer peptides were prepared from the amino acid sequence of NY-ESO-1 as set forth in, e.g., U.S. Pat. No. 5,804,381, incorporated by reference. The peptides were designed to cover the entire sequence of NY-ESO-1, and to provide overlap.
The peptides were then individually pulsed to antigen presenting cells (“APCs”). These were CD4^−/CD8^− PBMCs taken from the same subjects who had provided the CD4^+ and CD8^+ cells. These APCs were irradiated with 3000 rads, and then pulsed with one of the peptides, at a concentration of 10 μg/ml, for 1 hour, in serum free medium. These APCs were then washed, and added to the CD4^+ cells. In the pulsing experiments, the peptides were solubilized in DMSO (100%) and then diluted with PBS to a final concentration of 10% DMSO. The CD4^+ cells had been cultured in a medium of L-arginine (242 mg/l), L-asparagene (50 mg/l), L-glutamine (300 mg/l), penicillin (10 IU/ml), streptomycin (100 μg/ml), 1% non-essential amino acids, 10% HS, and 10 ng/ml of recombinant human IL-2.
The CD4^+ T cells were restimulated weekly with 1 μg/ml of the peptide being used. On day 12, each CD4^+ culture was assayed for NY-ESO-1 peptide recognition, using the ELISPOT assay of lager, et al., Proc. Natl. Acad. Sci. USA, 97(9):4760-4765 (2000), incorporated by reference. To elaborate on this procedure, flat-bottomed, 96-well nitrocellulose plates were coated with 5 μg/ml of anti-interferon-gamma antibody and incubated overnight at 4° C. After washing with PBS, plates were blocked with 10% human serum (HS) for 1 hour at 37° C. Depending on the effector:target ratio used, various numbers of presensitized CD4^+ T-cells were added to each well along with 5×10^4 autologous peptide pulsed EBV transfected B cells (“EBV-B cells”) serving as target cells and incubated for 16 hours at 37° C. in TCM without IL-2. Plates were then washed extensively (6 times with a solution of 0.05% Tween 20/PBS), and biotinylated anti-interferon-gamma detection antibody was added at a concentration of 0.5 μg/ml. After incubation for 2 h at 37° C., plates were washed and incubated with ABC-AP Vectastain for 1 hour. Plates were washed again and developed with substrate (BCIP/NPT) until blue spots were visible. The number of blue spots/well represented the proportion of NY-ESO-1 specific CD4^+ T-cells/well was finally counted under the microscope.
The EBV-B-cells were generated from each patients' PBMC following standard methods and maintained in RPMI 1640 medium supplemented with 10 mM Hepes buffer, L-arginine (242 mg/l), L-asparagine (50mg/l), L-glutamine (300 mg/l), penicillin (10 IU/ml), streptomycin (100 μg/ml), 1% non-essential amino acids, and 10% FCS. […] PBMC's or EBV-B-cells were molecularly typed for HLA expression using standard procedures.

| Substance | Patient T cells 1 | Patient T cells 2 | Patient T cells 3 | patients whose CD4+ T cells recognized the peptide |
| --- | --- | --- | --- | --- |
| P13-30: synthetic 18 mer peptide, amino acids 13-30 of NY-ESO-1 (GDADGPGGPGIPDGPGGN; UniProt P78358 13-30, looked up, fragment) [Peptide P13-30] | − (− indicates <50 spots) | − (− indicates <50 spots) | − (− indicates <50 spots) |  |
| P19-36: synthetic 18 mer peptide, amino acids 19-36 of NY-ESO-1 (GGPGIPDGPGGNAGGPGE; UniProt P78358 19-36, looked up, fragment) [Peptide P19-36] | − (− indicates <50 spots) | − (− indicates <50 spots) | − (− indicates <50 spots) |  |
| P25-42: synthetic 18 mer peptide, amino acids 25-42 of NY-ESO-1 (DGPGGNAGGPGEAGATGG; UniProt P78358 25-42, looked up, fragment) [Peptide P25-42] | − (− indicates <50 spots) | − (− indicates <50 spots) | − (− indicates <50 spots) |  |
| P31-48: synthetic 18 mer peptide, amino acids 31-48 of NY-ESO-1 (AGGPGEAGATGGRGPRGA; UniProt P78358 31-48, looked up, fragment) [Peptide P31-48] | − (− indicates <50 spots) | − (− indicates <50 spots) | − (− indicates <50 spots) |  |
| P37-54: synthetic 18 mer peptide, amino acids 37-54 of NY-ESO-1 (AGATGGRGPRGAGAARAS; UniProt P78358 37-54, looked up, fragment) [Peptide P37-54] | − (− indicates <50 spots) | − (− indicates <50 spots) | − (− indicates <50 spots) |  |
| P43-60: synthetic 18 mer peptide, amino acids 43-60 of NY-ESO-1 (RGPRGAGAARASGPGGGA; UniProt P78358 43-60, looked up, fragment) [Peptide P43-60] | − (− indicates <50 spots) | + (+ indicates >50 spots (all + scores indicated were >100 spots)) | − (− indicates <50 spots) | one patient |
| P67-84: synthetic 18 mer peptide, amino acids 67-84 of NY-ESO-1 (GAASGLNGCCRCGARGPE; UniProt P78358 67-84, looked up, fragment) [Peptide P67-84] | − (− indicates <50 spots) | − (− indicates <50 spots) | − (− indicates <50 spots) |  |
| P73-90: synthetic 18 mer peptide, amino acids 73-90 of NY-ESO-1 (NGCCRCGARGPESRLLEF; UniProt P78358 73-90, looked up, fragment) [Peptide P73-90] | − (− indicates <50 spots) | − (− indicates <50 spots) | − (− indicates <50 spots) |  |
| P79-96: synthetic 18 mer peptide, amino acids 79-96 of NY-ESO-1 (GARGPESRLLEFYLAMPF; UniProt P78358 79-96, looked up, fragment) [Peptide P79-96] | − (− indicates <50 spots) | − (− indicates <50 spots) | − (− indicates <50 spots) |  |
| p1-18: synthetic 18 mer peptide, amino acids 1-18 of NY-ESO-1 (MQAEGRGTGGSTGDADGP; UniProt P78358 1-18, looked up, fragment) | − (− indicates <50 spots) | − (− indicates <50 spots) | − (− indicates <50 spots) |  |
| p7-24: synthetic 18 mer peptide, amino acids 7-24 of NY-ESO-1 (GTGGSTGDADGPGGPGIP; UniProt P78358 7-24, looked up, fragment) | − (− indicates <50 spots) | − (− indicates <50 spots) | − (− indicates <50 spots) |  |
| p85-102: synthetic 18 mer peptide, amino acids 85-102 of NY-ESO-1 (SRLLEFYLAMPFATPMEA; UniProt P78358 85-102, looked up, fragment) | − (− indicates <50 spots) | − (− indicates <50 spots) | − (− indicates <50 spots) |  |
| p91-108: synthetic 18 mer peptide, amino acids 91-108 of NY-ESO-1 (YLAMPFATPMEAELARRS; UniProt P78358 91-108, looked up, fragment) | − (− indicates <50 spots) | − (− indicates <50 spots) | − (− indicates <50 spots) |  |
| p97-114: synthetic 18 mer peptide, amino acids 97-114 of NY-ESO-1 (ATPMEAELARRSLAQDAP; UniProt P78358 97-114, looked up, fragment) | − (− indicates <50 spots) | + (+ indicates >50 spots (all + scores indicated were >100 spots)) | − (− indicates <50 spots) | one patient |
| p103-120: synthetic 18 mer peptide, amino acids 103-120 of NY-ESO-1 (ELARRSLAQDAPPLPVPG; UniProt P78358 103-120, looked up, fragment) | − (− indicates <50 spots) | + (+ indicates >50 spots (all + scores indicated were >100 spots)) | − (− indicates <50 spots) | one patient |
| p109-126: synthetic 18 mer peptide, amino acids 109-126 of NY-ESO-1 (LAQDAPPLPVPGVLLKEF; UniProt P78358 109-126, looked up, fragment) | − (− indicates <50 spots) | − (− indicates <50 spots) | − (− indicates <50 spots) |  |
| p115-132: synthetic 18 mer peptide, amino acids 115-132 of NY-ESO-1 (PLPVPGVLLKEFTVSGNI; UniProt P78358 115-132, looked up, fragment) | − (− indicates <50 spots) | − (− indicates <50 spots) | − (− indicates <50 spots) |  |
| p127-144: synthetic 18 mer peptide, amino acids 127-144 of NY-ESO-1 (TVSGNILTIRLTAADHRQ; UniProt P78358 127-144, looked up, fragment) | − (− indicates <50 spots) | − (− indicates <50 spots) | − (− indicates <50 spots) |  |
| p133-150: synthetic 18 mer peptide, amino acids 133-150 of NY-ESO-1 (LTIRLTAADHRQLQLSIS; UniProt P78358 133-150, looked up, fragment) | − (− indicates <50 spots) | − (− indicates <50 spots) | − (− indicates <50 spots) |  |
| p139-156: synthetic 18 mer peptide, amino acids 139-156 of NY-ESO-1 (AADHRQLQLSISSCLQQL; UniProt P78358 139-156, looked up, fragment) | − (− indicates <50 spots) | − (− indicates <50 spots) | − (− indicates <50 spots) |  |
| p145-162: synthetic 18 mer peptide, amino acids 145-162 of NY-ESO-1 (LQLSISSCLQQLSLLMWI; UniProt P78358 145-162, looked up, fragment) | − (− indicates <50 spots) | − (− indicates <50 spots) | − (− indicates <50 spots) |  |
